Source: paper PMC7217877, “N-AS-triggered SPMs are direct regulators of microglia in a model of Alzheimer’s disease” (Nature Communications, 2020)
Where “and” joins values, the source holds several entries; their conditions need not be identical. Equal entries are not always repeated.

Columns and labels:
[1] = biological target: T1, COX2 S565A (Homo sapiens, UniProt P35354, S565A); assay: filter binding assay of [14C] N-AS to COX2; conditions: 0.2 uM, replicates
T1 construct: His (N); made in house
T1 sequence (P35354 18-604 S565A): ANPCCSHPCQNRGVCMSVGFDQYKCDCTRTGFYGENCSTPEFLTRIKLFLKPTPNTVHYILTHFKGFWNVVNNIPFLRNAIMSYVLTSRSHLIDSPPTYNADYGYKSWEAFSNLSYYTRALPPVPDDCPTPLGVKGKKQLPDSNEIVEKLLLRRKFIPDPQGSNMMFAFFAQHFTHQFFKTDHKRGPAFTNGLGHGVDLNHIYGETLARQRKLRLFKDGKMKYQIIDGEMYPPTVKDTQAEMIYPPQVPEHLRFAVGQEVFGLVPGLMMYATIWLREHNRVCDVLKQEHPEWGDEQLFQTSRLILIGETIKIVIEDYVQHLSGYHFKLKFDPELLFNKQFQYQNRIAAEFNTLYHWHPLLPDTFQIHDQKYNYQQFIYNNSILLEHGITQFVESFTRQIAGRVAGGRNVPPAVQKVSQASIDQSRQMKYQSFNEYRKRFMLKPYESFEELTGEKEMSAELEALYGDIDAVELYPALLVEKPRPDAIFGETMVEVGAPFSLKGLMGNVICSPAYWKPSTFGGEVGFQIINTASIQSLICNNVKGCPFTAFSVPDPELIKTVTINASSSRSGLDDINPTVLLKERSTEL

[2] = solubility (stated in discussion); format: physicochemical
[3] = test system: neuron; assay: sphingosine level in primary cells (UPLC); format: cell-based, C57BL/6 mice; conditions: Ab 10mM, replicates
Experimental: To confirm the generation and roles of N-AS in neurons, cells from E18 C57BL/6 mice were prepared as previously described. Cortices were dissected and then dissociated followed by incubation in papain (Worthington) at 37 °C for 15 min. Neurons were plated on poly-L-lysine-coated coverslips with neuronal culture medium, serum-free Neurobasal medium (Gibco) containing 2% B27 supplements (Gibco), 1 mM Glutamax supplement (Gibco), and 100 U ml^−1 streptomycin/ 100 U ml^−1 penicillin (Gibco) at 37 °C in a humidified atmosphere of 5% CO2. […] Primary astrocyte cultures were prepared from C57BL/6 mice as described previously. In brief, after removal of the meninges, postnatal day 7 (P7) mouse brain tissues were minced and incubated in a rocking water bath at 37 °C for 30 min in the presence of 0.25% trypsin-EDTA (Sigma-Aldrich). […] The human microglia treated with Aβ 1–42 and/or zileuton was incubated with N-AS (2.5 μM, 2 h, Sigma-Aldrich, 01912), and were analyzed for the generation and roles of N-AS.
To quantify the sphingosine levels, the dried lipid extract was resuspended in 0.2% Igepal CA-630. […] The fluorescent sphingosine was monitored using a model 474 scanning fluorescence detector (Waters). Quantification of the sphingosine was calculated from sphingosine calibration curves using the Waters Millennium software.

| Molecule | binding velocity (Vbinding) [1] | solubility, in words [2] | sphingosine (Fig 3f) [3] |
| --- | --- | --- | --- |
| CCCCCCCCCCCCC/C=C/[C@@H](O)[C@H](CO)NC(C)=O [N-AS, N-((2S,3R,E)-1,3-Dihydroxyoctadec-4-en-2-yl)acetamide] | 0.187 nM/min and 0.075 nM/min and 0.292 nM/min | poor solubility | – |
| Ab: Aβ 1–42 (Invitrogen, 03112) used to induce an AD environment in cells | – | – | 0.1262 and 0.1156 and 0.1288 and 0.1301 and 0.1222 and 0.1295 |
